Reference: patent US7799913B2, “Carbonylbenzoxazine compounds for enhancing glutamatergic synaptic responses” (Cortex Pharmaceuticals, Inc., priority 2001, dated 2010)
One block for each compound: values may come before it.

Key:
AMPA receptor = test: steady-state current induced by glutamate in cortical neurons in primary culture; type: cell-based, rat; conditions: for EC2X: concentration of modulator required to double the steady state current: 300 μM glutamate on cultured neurons
Description: (§1) The physiological effects of invention compounds were tested in vitro on primary cultures of rat cortical neurons as described by Hamill, O P, et al. in Pflügers Arch 391: 85-100 (1981) or on slices of rat hippocampus according to the following procedure. Excitatory responses (field EPSPs) were measured in hippocampal slices, which were maintained in a recording chamber continuously perfused with artificial cerebrospinal fluid (ACSF). During a 15-30 minute interval, the perfusion medium was switched to one containing various concentrations of the test compounds. Responses collected immediately before and at the end of drug perfusion were superimposed in order to calculate the percent increase in EPSP amplitude.

AMPA receptors = test: field EPSP amplitude in field CA1 of rat hippocampal slice; type: cell-based; conditions: for AMP: concentration of modulator that increases the amplitude of the fEPSP by 10%: rat hippocampal slice
Text: The field EPSP, (excitatory post-synaptic potential) recorded in field CA1 after stimulation of CA3 axons is known to be mediated by AMPA receptors, which are present in the synapses (Kessler et al., Brain Res. 560: 337-341 (1991)). Drugs that selectively block the receptor selectively block the field EPSP (Muller et al., Science, supra). […] These effects are mirrored in the field EPSP (see, for example, Staubli et al., Psychobiology, supra; Xiao et al., Hippocampus, supra; Staubli et al., Hippocampus 2: 4958 (1992)).
To obtain the data shown in Table I, a bipolar nichrome stimulating electrode was positioned in the dendritic layer (stratum radiatum) of the hippocampal subfield CA1 close to the border of subfield CA3, as described in Example 64. Current pulses (0.1 msec) through the stimulating electrode activate a population of the Schaffer-commissural (SC) fibers, which arise from neurons in the subdivision CA3 and terminate in synapses on the dendrites of CA1 neurons. Activation of these synapses causes them to release the transmitter glutamate. Glutamate binds to post-synaptic AMPA receptors, which then transiently open an associated ion channel and permit a sodium current to enter the postsynaptic cell. This current results in a voltage in the extracellular space (the field EPSP), which is recorded by a high impedance recording electrode positioned in the middle of the stratum radiatum of CA1.
The intensity of the stimulation current was adjusted to produce half-maximal EPSPs (typically about 1.5-2.0 mV). Paired stimulation pulses were given every 40 sec with an interpulse interval of 200 msec, as described further in Example 64.
Hippocampal slices were maintained in a recording chamber continuously perfused with artificial cerebrospinal fluid (ACSF). During 15-30 minute intervals, the perfusion medium was switched to one containing various concentrations of the test compounds. Responses collected immediately before and at the end of drug perfusion were superimposed in order to calculate the percent increase in EPSP amplitude.
as §1
To conduct these tests, the hippocampus was removed from anesthetized, 2 month old Sprague-Dawley rats and in vitro slices (400 μm thick) were prepared and maintained in an interface chamber at 35° C. using conventional techniques [see, for example, Dunwiddie and Lynch, J. Physiol. 276: 353-367 (1978)]. The chamber was constantly perfused at 0.5 mL/min with ACSF containing (in mM): NaCl 124, KCl 3, KH2PO4 1.25, MgSO4 2.5, CaCl2 3.4, NaHCO3 26, glucose 10 and L-ascorbate 2. A bipolar nichrome stimulating electrode was positioned in the dendritic layer (stratum radiatum) of the hippocampal subfield CA1 close to the border of subfield CA3.
Current pulses (0.1 msec) through the stimulating electrode activate a population of the Schaffer-commissural (SC) fibers, which arise from neurons in the subdivision CA3 and terminate in synapses on the dendrites of CA1 neurons. Activation of these synapses causes them to release the transmitter glutamate. Glutamate binds to the post-synaptic AMPA receptors, which then transiently open an associated ion channel and permit a sodium current to enter the postsynaptic cell. […]

[1] = eight-arm radial maze task for cognition/memory enhancement; type: in vivo
Text: This task has been described previously (Staubli et al., PNAS 91:777-781 (1994)) and Lynch and Rogers, PCT Pubn. No. WO 94/02475).
This test has been described previously by Staubli et al., PNAS 91:777-781 (1994) and Lynch and Rogers, U.S. Pat. No. 5,747,492.

melting point: 189 to 190 °C
Structure (SMILES): O=C1CCCN1CCCN1COc2cc3c(cc2C1=O)OC1CCCN1C3=O (racemic) [Example 27, (R,S)-3-[3-(2-oxopyrrolidinyl)propyl]-2H,6aH-pyrrolidino[2″,1″-3′,2′]1,3-oxazino[5′,6′-4,5]benzo[e]1,3-oxazaperhydroine-4,10-dione]
EC2X: concentration of modulator required to double the steady state current (AMPA receptor): 1 µM
AMP: concentration of modulator that increases the amplitude of the fEPSP by 10% (AMPA receptors): 10 µM

Structure (SMILES): O=C1c2cc3c(cc2OC2CCCN12)C(=O)N1CCCC1O3 [Example 1, (R,S), (R,S)-3aH,9aH-pyrrolidino[2,1-b]pyrrolidino[2″,1″-2′,3′](1,3-oxazino)[5′,6′-2,1]benzo[4,5-e]1,3-oxazaperhydroine-6,12-dione]
potency relative to CX516 (times more potent) ([1]; eight-arm radial maze MEDC): 250

Structure (SMILES): O=C(c1ccc2nccnc2c1)N1CCCCC1 [CX516, 1-(quinoxaline-6-ylcarbonyl)piperidine, reference compound]
EC2X: concentration of modulator required to double the steady state current (AMPA receptor): 830 µM
EC2x: concentration of compound that causes at least a doubling of the steady-state current (AMPA receptor; cortical neurons in primary culture, 300 μM glutamate): 830 µM
MEDC: Minimum Effective Dose that produces a statistically significant improvement in behavior ([1]; eight-arm radial maze task): 12.5 mg/kg
Amp: concentration of compound that causes a 10% increase in the amplitude of the field EPSP (AMPA receptors; field CA1 of rat hippocampal slice, estimated by interpolation or extrapolation): 80 µM
AMP: concentration of modulator that increases the amplitude of the fEPSP by 10% (AMPA receptors): 80 µM
